From patent US7078045B2, “Pharmaceutical composition for treatment and prevention of liver fibrosis and cirrhosis” (Sang-Geon Kim, priority 2000, dated 2006)
Like-named read-outs stand apart in the source and are kept apart here. Marks after values point to notes of the source that are not given here.

What was measured:
[1] = system: TGF-β expression in RAW264.7 macrophage cells; test: Inhibition of TGF-β expression in RAW264.7 macrophage cells; format: cell-based
[2] = system: NF-κB activation in Raw264.7 cells; test: LPS-induced NF-κB DNA binding activity in Raw264.7 cells; format: cell-based
Experimental: Stimulation of Raw264.7 cells with […] of LPS caused an increase in DNA binding activity of NF-κB after 30 min to 1 h. DDB at the concentrations of 0.1, 0.3 and 1 mM inhibited NF-κB activity in a concentration-dependent manner.

I-κBα degradation = I-κBα degradation after LPS in rats; format: in vivo, rat; conditions: LPS 1 μg/kg + DDB 100 mg/kg, 2 h prior to LPS
Experimental: (§1) Translocation of NF-κB to the nucleus was preceded by phosphorylation and proteolytic degradation of the I-κBα subunit. This test was conducted in order to ascertain whether the effect of DDB on NF-κB activation is associated with the inhibition of I-κBα degradation. The level of I-κBα protein was reduced 30 min after the treatment of rats with LPS (1 μg/kg). In contrast, treatment with DDB 2 h prior to LPS treatment attenuated the decrease in I-κBα protein by LPS. Also with RAW264.7 cells, DDB inhibited the degradation of I-κBα protein in a concentration-dependent manner at the concentrations of 0.3 to 1 mM.

NF-κB activation = test: LPS-inducible NF-κB activation in rat liver (EMSA); format: in vivo; conditions: 2 h prior to LPS
Experimental: It is known that NF-κB activation is associated with inflammatory responses. To compare the NF-κB activity in the liver tissue when DDB is administered with that when DDB is not administered, the following test was conducted. SD male rats with weight of about 150 g were used. For one group 7 rats were used. For the control group (vehicle administered) and test group (20 to 100 mg/kg/day of DDB administered), the NF-κB activity in accordance with the treatment of endotoxin (lipopolysaccharide, LPS) was measured by using Electrophoresis Mobility Shift Assay (EMSA).

TGF-β mRNA expression = test: Effect of oltipraz/DDB combinations on TGF-β mRNA expression (quantitative RT-PCR) in DMN-administered animals; format: in vivo
From the text: As addressed above, TGF-β is a cytokine that causes hepatic fibrosis and is known to be associated with hepatic fibrosis development.
However, as the DDB to oltipraz ratio increases, the inhibition of TGF-β expression is progressively lost. In the animal group administered with DDB alone, TGF-β expression was not inhibited. Therefore, inhibition of TGF-β expression is considered to be caused by oltipraz. On this ground, the best combination ratio of oltipraz to DDB is 5:1 (Table 9).

TNF-α production = test: Plasma TNF-α after LPS in rats (ELISA); format: in vivo, rat; conditions: for plasma TNF-α level: LPS 1 μg/kg i.v., 2 h after administration; for % inhibition of LPS-induced plasma TNF-α elevation: Table 6, TNF-α production in plasma
Experimental: (§2) TNF-α is the principal mediator of the responses to LPS and is involved in inflammatory processes. It was determined by ELISA whether the amount of TNF-α released into blood decreases when NF-κB activity was inhibited by DDB. A single dose of LPS treatment (1 μg/kg, i.v.) increased the TNF-α level from 35 to 5160 pg per ml of plasma 2 h after administration. DDB treatment at a dose of 20, 50 or 100 mg/kg prevented the elevation of plasma TNF-α level by LPS, resulting in 1350, 1230 or 690 pg per ml of plasma, respectively. With the RAW264.7 cells, DDB decreased the production of TNF-α by LPS.

[3] = system: I-κBα degradation in RAW264.7 cells; test: I-κBα degradation after LPS in RAW264.7 cells; format: cell-based
Experimental: as §1

[4] = system: TNF-α production in RAW264.7 cells; test: TNF-α production by LPS in RAW264.7 cells; format: cell-based; conditions: Table 6, TNF-α production; LPS + DDB 1.0 mg/kg as printed
Experimental: as §2

[5] = system: DMN induced hepatic fibrosis; test: animal or person
From the text: Plasma gamma-glutamyl transpeptidase (gamma-GT) activity and bilirubin content are used as indicators of hepatic functionality.
Each value is represented by the average ± standard deviation. The number of animals used ranged from 8 to 16. The significance of each group was indicated by the Newman-Keuls test of multiple analysis. The significance markers are: *=p<0.05 compared to control, #=p<0.05 compared to DMN treated group.
The anti-fibrotic activity of the oltipraz/DDB combination was evaluated by changing the component ratio of the combination. To evaluate the effect of the combination according to the component ratio, the dosage schedule of DMN was partially modified. That is, while DMN was administered to a rat 12 times totally in dosages of 10 μl/kg per administration over a 4-week period, 3 times a week in the test examples 1 and 2, to evaluate the effect of the combination according to the component ratio, an animal model with reduced liver damage was used wherein DMN was administered to a rat 9 times totally in dosages of 10 μl/kg per administration over a 3-week period, 3 times a week, and then not administered in the remaining one week in the test example.

[6] = system: DMN induced hepatic fibrosis; conditions: 3 times a week; for Fibrosis Values: score 0-4
Experimental: The degree of fibrosis was determined by evaluating the fibrosis and Knodell scores, which show degrees of liver damage and fibrosis.
Each value is represented by the average ± standard deviation. The number of animals used was 8 to 16. The significance of each group is determined by the Newman-Keuls test of multiple analysis. *p<0.05, **p<0.01. Degree of fibrosis 0=Normal, 1=Presence of weak fibrous tissue, 2=Moderate presence of fibrous tissue, 3=Obvious presence of fibrous tissue, 4=Evidence of severe fibrosis. Sum of values from periportal bridging (Greatest=10), intralobular cell loss (Greatest=4), portal inflammation (Greatest=4), and fibrosis (Greatest=4) yields the Knodell score.

TGF-β 1 mRNA expression = conditions: liver tissue; 100 mg/kg oltipraz given 18 hours after DMN, observed 24 hours later
[7] = plasma, DMN 4 weeks + Oltipraz 50 mg/kg
[8] = DMN 4 weeks + Oltipraz 5 mg/kg oral
[9] = DMN 4 weeks + Oltipraz 15 mg/kg oral
[10] = DMN 4 weeks + Oltipraz 50 mg/kg oral

`O=C(O)CN(CCOCCOCCN(CC(=O)O)CC(=O)O)CC(=O)O` [EGTA] was tested, and the “TGF-β Inhibition Percentage (%)” value ([1]; EGTA 1 mM) was 80%.
In the case of `COC(=O)c1cc(OC)c2c(c1-c1c(C(=O)OC)cc(OC)c3c1OCO3)OCO2` [DDB, dimethyl-4,4′-dimethoxy-5,6,5′,6′-dimethylene dioxybiphenyl-2,2′-dicarboxylate], the “% inhibition of NF-κB activation” value ([2]; LPS 1 μg/ml + DDB 0.1 mM) is reported as 33%, the “% inhibition of NF-κB activation” value ([2]; LPS 1 μg/ml + DDB 0.3 mM) is reported as 35% and the “% inhibition of NF-κB activation” value ([2]; LPS 1 μg/ml + DDB 1.0 mM) is reported as 65%. For the same compound, the “% inhibition of I-κBα degradation” value (I-κBα degradation) was 67%, the “% inhibition of NF-κB activation” value (NF-κB activation; LPS 1 μg/kg + DDB 20 mg/kg) was 42% and the “% inhibition of NF-κB activation” value (NF-κB activation; LPS 1 μg/kg + DDB 50 mg/kg) was 63%. For the same compound, the “% inhibition of NF-κB activation” value (NF-κB activation; LPS 1 μg/kg + DDB 100 mg/kg) was 73%, the “% Inhibition of TGF-β mRNA expression” value (TGF-β mRNA expression; DMN + DDB 30 mg/kg) was 0% and the “TGF-β expression (result in words)” value (TGF-β mRNA expression; DMN + DDB alone) was “not inhibited”. The “plasma TNF-α level” value (TNF-α production; DDB 20 mg/kg) was 1350 pg per ml of plasma, the “plasma TNF-α level” value (TNF-α production; DDB 50 mg/kg) was 1230 pg per ml of plasma and the “plasma TNF-α level” value (TNF-α production; DDB 100 mg/kg) was 690 pg per ml of plasma. For the same compound, the “% inhibition of LPS-induced plasma TNF-α elevation” value (TNF-α production; LPS 1 μg/kg + DDB 20 mg/kg) was 74%, the “% inhibition of LPS-induced plasma TNF-α elevation” value (TNF-α production; LPS 1 μg/kg + DDB 50 mg/kg) was 76% and the “% inhibition of LPS-induced plasma TNF-α elevation” value (TNF-α production; LPS 1 μg/kg + DDB 100 mg/kg) was 87%. For the same compound, the “% inhibition of I-κBα degradation” value ([3]; LPS 1 μg/ml + DDB 0.1 mM) was 22%, the “% inhibition of I-κBα degradation” value ([3]; LPS 1 μg/ml + DDB 0.3 mM) was 34% and the “% inhibition of I-κBα degradation” value ([3]; LPS 1 μg/ml + DDB 1.0 mM) was 65%. For the same compound, the “% inhibition of TNF-α production” value [4] was 65%.
`Cc1c(-c2cnccn2)ssc1=S` [Oltipraz, 5-(2-pyrazinyl)-4-methyl-1,2-dithiol-3-thione] was tested, and the inhibition at 30 µM ([1]; Mus musculus, Oltipraz 30 μM, read-out: TGF-β Inhibition Percentage (%)) was 30%, the inhibition at 100 µM ([1]; Mus musculus, Oltipraz 100 μM, read-out: TGF-β Inhibition Percentage (%)) was 60% and the “inhibition percentage of ALT increase by DMN” value ([5]; 50 mg/kg of oltipraz administered alone (stated in Test Example 7)) was 40%. For the same compound, the inhibition at 50 mg/kg ([5]; Rattus norvegicus, read-out: inhibition of plasma bilirubin increase) was 65%, the ALT [5, 7] was 116 ± 4^# and the AST [5, 7] was 246 ± 32^#. The Bilirubin [5, 7] was 0.3 ± 0.03^#, the gamma-GT [5, 7] was 2.6 ± 0.5^# and the “TGF-β expression (result in words)” value (TGF-β mRNA expression; DMN + 30 mg/kg of oltipraz) was “completely inhibited”. For the same compound, the “% Inhibition of TGF-β mRNA expression” value (TGF-β mRNA expression; DMN + oltipraz 30 mg/kg) was 65%, the “Knodell Values” [6, 8] was 11.1 ± 1.7* and the “Fibrosis Values” [6, 8] was 3.1 ± 0.4*. For the same compound, the “Knodell Values” [6, 9] was 12.1 ± 1.9*, the “Fibrosis Values” [6, 9] was 2.9 ± 0.8* and the “Knodell Values” [6, 10] was 8.0 ± 1.6**. The “Fibrosis Values” [6, 10] was 2.5 ± 0.9** and the “DMN induced expression of TGF-β 1 mRNA” value (TGF-β 1 mRNA expression) was “completely inhibited”.
`O=c1c(-c2ccc(O)cc2)coc2cc(O)cc(O)c12` [Genistein, genistein] gave an inhibition at 100 µM ([1]; Mus musculus, Genistein 100 μM, read-out: TGF-β Inhibition Percentage (%)) of 80%.
